Reference: US8901035B2, “Herbicidal compositions comprising 4-amino-3-chloro-5-fluoro-6-(4-chloro-2-fluoro-3-methoxyphenyl) pyridine-2-carboxylic acid or a derivative thereof and cellulose biosynthesis inhibitor herbicides” (Dow AgroSciences LLC, priority 2012, dated 2014)

Tests used:
Assay type in all cases: in vivo
[1] = system: Abutilon theophrasti Medik. (ABUTH); assay: Pre-emergence soil-applied herbicidal mixtures for weed control (greenhouse)
From the text: Seeds or nutlets of the desired test plant species were planted in a soil matrix prepared by mixing a loam soil (e.g., 32 percent silt, 23 percent clay, and 45 percent sand, with a pH of about 6.5 and an organic matter content of about 1.9 percent) and calcareous grit in an 80 to 20 ratio. The soil matrix was contained in plastic pots with a volume of 1 quart and a surface area of 83.6 square centimeters (cm^2).
Treatments consisted of the benzyl ester of 4-amino-3-chloro-5-fluoro-6-(4-chloro-2-fluoro-3-methoxy-phenyl)pyridine-2-carboxylic acid (compound A) formulated as an SC (suspension concentrate) and various herbicidal components alone and in combination. Forms of compound A were applied on an acid equivalent basis.
Other herbicidal components were applied on an acid equivalent or active ingredient basis and included the cellulose biosynthesis inhibiting herbicides, isoxaben formulated as Gallery® 75DF and indaziflam formulated as Specticle® 20WSP.
Treatment requirements were calculated based upon the rates being tested, the concentration of active ingredient or acid equivalent in the formulation, and a 12 mL application volume at a rate of 187 L/ha.
For treatments comprised of formulated compounds, measured amounts of compounds were placed individually in 25 mL glass vials and diluted in a volume of 1.25% (v/v) Agri-Dex® crop oil concentrate (COC) to obtain 12× stock solutions. […] Application solutions were prepared by adding an appropriate amount of each stock solution (e.g., 1 mL) and diluted to the appropriate final concentrations with the addition of 10 mL of an aqueous mixture of 1.25% (v/v) COC so that the final spray solutions contained 1.25% (v/v) COC.
All stock solutions and applications solutions were visually inspected for compound compatibility prior to application. Spray solutions were applied to the soil with an overhead Mandel track sprayer equipped with a 8002E nozzles calibrated to deliver 187 L/ha over an application area of 0.503 m^2 at a spray height of 18 inches (46 cm) above average pot height. Control pots were sprayed in the same manner with the solvent blank.
The treated and control pots were placed in a greenhouse and top watered as needed. When required to ensure good germination and healthy plants, a fungicide treatment and/or other chemical or physical treatment was applied. The pots were maintained in a greenhouse with an approximate 14 hr. photoperiod which was maintained at about 29° C. during the day and 26° C. during the night. Nutrients (Peters® Excel 15-5-15 5-Ca 2-Mg) were applied in the irrigation solution as needed and water was added on a regular basis. Supplemental lighting was provided with overhead metal halide 1000-Watt lamps as necessary. After approximately 4 weeks, the condition of the test plants as compared with that of the untreated plants was determined visually and scored on a scale of 0 to 100 percent where 0 corresponds to no injury or growth inhibition and 100 corresponds to complete kill.
(§1) Colby's equation was used to determine the herbicidal effects expected from the mixtures (Colby, S. R. 1967. Calculation of the synergistic and antagonistic response of herbicide combinations. Weeds 15:20-22).
(§2) The following equation was used to calculate the expected activity of mixtures containing two active ingredients, A and B: Expected=A+B−(A×B/100)
(§3) A=observed efficacy of active ingredient A at the same concentration as used in the mixture.
(§4) B=observed efficacy of active ingredient B at the same concentration as used in the mixture.

[2] = system: Cirsium arvense (L.) Scop. (CIRAR); assay: Postemergence herbicidal activity of mixtures in cereal crops in the greenhouse
Experimental: (§5) Seeds of the desired test plant species were planted in Sun Gro MetroMix 306 planting mixture, which typically has a pH of 6.0 to 6.8 and an organic matter content of about 30 percent, in plastic pots with a surface area of 103.2 square centimeters (cm^2). When required to ensure good germination and healthy plants, a fungicide treatment and/or other chemical or physical treatment was applied. The plants were grown for 7-36 days in a greenhouse with an approximate 14 hour photoperiod which was maintained at about 18° C. during the day and about 17° C. during the night. Nutrients and water were added on a regular basis and supplemental lighting was provided with overhead metal halide 1000-Watt lamps as necessary. The plants were employed for testing when they reached the second or third true leaf stage.
(§6) Treatments consisted of the benzyl ester of 4-amino-3-chloro-5-fluoro-6-(4-chloro-2-fluoro-3-methoxy-phenyl)pyridine-2-carboxylic acid (Compound A), formulated as an SC, a second cereal herbicide alone and then both in combination.
(§7) Other herbicidal components were applied on an active ingredient basis and included cellulose biosynthesis inhibiting herbicides.
(§8) Measured aliquots of benzyl ester of 4-amino-3-chloro-5-fluoro-6-(4-chloro-2-fluoro-3-methoxy-phenyl)pyridine-2-carboxylic acid (Compound A) were placed in 25 milliliter (mL) glass vials and diluted in a volume of 1.25% (v/v) Agri-Dex® crop oil concentrate to obtain stock solutions. Compound requirements are based upon a 12 mL application volume at a rate of 187 liters per hectare (L/ha). Spray solutions of the second cereal herbicide and experimental compound mixtures were prepared by adding the stock solutions to the appropriate amount of dilution solution to form 12 mL spray solution with active ingredients in two- and three-way combinations. Formulated compounds were applied to the plant material with an overhead Mandel track sprayer equipped with an 8002E nozzle calibrated to deliver 187 L/ha over an application area of 0.503 square meters (m^2) at a spray height of 18 inches (46 cm) above average plant canopy. Control plants were sprayed in the same manner with the solvent blank.
(§9) The treated plants and control plants were placed in a greenhouse as described above and watered by sub-irrigation to prevent wash-off of the test compounds. After 20-22 days, the condition of the test plants as compared with that of the control plants was determined visually and scored on a scale of 0 to 100 percent where 0 corresponds to no injury and 100 corresponds to complete kill.
as §1, §2, §3, §4

[3] = system: Stellaria media (L.) Vill. (STEME); assay: as above
Experimental: as §5, §6, §7, §8, §9, §1, §2, §3, §4

[4] = system: Chenopodium album L. (CHEAL); assay: as above
Experimental: as §5, §6, §7, §8, §9, §1, §2, §3, §4

[5] = system: Sinapis arvensis L. (SINAR); assay: as above
Experimental: as §5, §6, §7, §8, §9, §1, §2, §3, §4

[6] = system: Amaranthus retroflexus L. (AMARE); assay: as above
Experimental: as §5, §6, §7, §8, §9, §1, §2, §3, §4

[7] = system: Galium aparine L. (GALAP); assay: as above
Experimental: as §5, §6, §7, §8, §9, §1, §2, §3, §4

[8] = Compound A Benzyl Ester 5 g ai/ha alone
[9] = Compound A Benzyl Ester 10 g ai/ha alone
[10] = Compound A Benzyl Ester 2.5 g ai/ha alone

CCC(C)(CC)c1cc(NC(=O)c2c(OC)cccc2OC)on1 [Isoxaben, N-[3-(1-ethyl-1-methylpropyl)-5-isoxazolyl]-2,6-dimethoxybenzamide, reference compound]
Visual Weed Control (%) - 27 DAA ABUTH Obs ([1]; Isoxaben 560 g ai/ha alone): 77% | Visual Weed Control (%) - 27 DAA ABUTH Obs ([1]; Isoxaben 1120 g ai/ha alone): 67% | Visual Weed Control (%) - 21 DAA Obs ([2]; Isoxaben 31.25 g ai/ha alone): 3% | Visual Weed Control (%) - 21 DAA Obs ([2]; Isoxaben 62.5 g ai/ha alone): 13% | Visual Weed Control (%) - 21 DAA Obs ([2]; Isoxaben 125 g ai/ha alone): 17% | Visual Weed Control (%) - 21 DAA Obs ([3]; Isoxaben 31.25 g ai/ha alone): 5% | Visual Weed Control (%) - 21 DAA Obs ([3]; Isoxaben 62.5 g ai/ha alone): 5% | Visual Weed Control (%) - 21 DAA CHEAL Obs ([4]; Isoxaben 31.25 g ai/ha alone): 5% | Visual Weed Control (%) - 21 DAA CHEAL Obs ([4]; Isoxaben 62.5 g ai/ha alone): 5% | Visual Weed Control (%) - 21 DAA SINAR Obs ([5]; Isoxaben 31.25 g ai/ha alone): 13% | Visual Weed Control (%) - 21 DAA SINAR Obs ([5]; Isoxaben 62.5 g ai/ha alone): 13% | Visual Weed Control (%) - 21 DAA AMARE Obs ([6]; Isoxaben 31.25 g ai/ha alone): 0% | Visual Weed Control (%) - 21 DAA AMARE Obs ([6]; Isoxaben 62.5 g ai/ha alone): 8% | Visual Weed Control (%) - 21 DAA Obs ([7]; Isoxaben 31.25 g ai/ha alone): 0% | Visual Weed Control (%) - 21 DAA Obs ([7]; Isoxaben 62.5 g ai/ha alone): 8% | Visual Weed Control (%) - 21 DAA Obs ([7]; Isoxaben 125 g ai/ha alone): 12%

COc1c(Cl)ccc(-c2nc(C(=O)OCc3ccccc3)c(Cl)c(N)c2F)c1F [Compound A Benzyl Ester, benzyl ester of 4-amino-3-chloro-5-fluoro-6-(4-chloro-2-fluoro-3-methoxy-phenyl)pyridine-2-carboxylic acid]
Visual Weed Control (%) - 27 DAA ABUTH Obs ([1]; Compound A Benzyl Ester 16 g ae/ha alone): 48% | Visual Weed Control (%) - 27 DAA ABUTH Obs ([1]; Compound A Benzyl Ester 32 g ae/ha alone): 87% | Visual Weed Control (%) - 21 DAA Obs [2, 8]: 39% | Visual Weed Control (%) - 21 DAA Obs [2, 9]: 60% | Visual Weed Control (%) - 21 DAA Obs [3, 10]: 25% | Visual Weed Control (%) - 21 DAA Obs [3, 8]: 25% | Visual Weed Control (%) - 21 DAA Obs [3, 9]: 27% | Visual Weed Control (%) - 21 DAA CHEAL Obs [4, 10]: 50% | Visual Weed Control (%) - 21 DAA CHEAL Obs [4, 8]: 58% | Visual Weed Control (%) - 21 DAA SINAR Obs [5, 10]: 70% | Visual Weed Control (%) - 21 DAA SINAR Obs [5, 8]: 73% | Visual Weed Control (%) - 21 DAA AMARE Obs [6, 10]: 20% | Visual Weed Control (%) - 21 DAA AMARE Obs [6, 8]: 38% | Visual Weed Control (%) - 21 DAA Obs [7, 10]: 55% | Visual Weed Control (%) - 21 DAA Obs [7, 8]: 66% | Visual Weed Control (%) - 21 DAA Obs [7, 9]: 77%
